Measurements: paper PMC10002220, “In Vivo Reversal of P-Glycoprotein-Mediated Drug Resistance in a Breast Cancer Xenograft and in Leukemia Models Using a Novel, Potent, and Nontoxic Epicatechin EC31” (International Journal of Molecular Sciences, 2023)
pIC50: −log10 of the molar value.

Legend:
[1] = system: LCC6MDR xenograft; assay: In vivo efficacy in reversing PTX resistance in LCC6MDR tumor xenograft model; details: for Doubling time: q2d x 14; for reduction in tumor volume compared to PTX alone / reduction in tumor weight compared to PTX alone: day 30
Description: (A) In vivo toxicity study of EC31 alone and of its combination with PTX was conducted. BALB/c mice were randomized into five groups with five mice in each group. Body weight of BALB/c mice during treatments was measured every two days. The treatment groups included (1) solvent control (5% NMP + 5% Cremophor EL + 90% PBS to dissolve EC31 and 5% Ethanol + 5% Cremophor EL + 90% PBS to dissolve PTX), (2) PTX (12 mg/kg i.v.), (3) EC31 (30 mg/kg i.p.), (4) EC31 (30 mg/kg i.p.) + PTX (12 mg/kg i.v.), or (5) EC31 (60 mg/kg i.p.) + PTX (12 mg/kg i.v.). The administration was performed every other day 12 times (q2d x 12). The loss of body weight or appetite and treatment-related mortality were monitored and defined as toxicity. (B) BALB/c nude mice were subcutaneously xenografted with LCC6MDR. When the tumor reached 150–300 mm^3, the mice were randomized and administered once with (1) EC31 alone, (2) PTX alone, or (3) EC31 + PTX. […] The tumors were taken out, and their weights were measured. Intratumor concentration of EC31 or PTX was measured using UPLC-MS/MS, and the actual concentration of PTX or EC31 was normalized to the tumor weight. […] (C) BALB/c nude mice were subcutaneously xenografted with LCC6MDR. The treatment groups included (1) solvent, (2) PTX (12 mg/kg i.v.) alone, (3) cotreatment with EC31 (30 mg/kg i.p.) being injected 1 h prior to PTX (12 mg/kg i.v.) and with EC31 (30 mg/kg i.p.) then being given in a second injection 5 h post-PTX injection, and (4) cotreatment with EC31 (60 mg/kg i.p.) being injected 1 h prior to PTX injection (12 mg/kg i.v.). Tumor volume and body weight were monitored throughout the treatment period. There were 8 mice in each treatment group. Treatments were given as indicated by the arrows. […] At the end of LCC6MDR xenograft efficacy study (day 30), all tumors were dissected. The tumor volume, tumor weight, and doubling time were measured. The number of animal deaths was recorded during the treatment period. Statistical analysis on tumor volumes of different treatment groups was done by performing two-way ANOVA with Dunnett’s multiple comparison test after treatment period. * represents p < 0.05, ** represents p < 0.01, and *** represents p < 0.001. […] No measure is printed with it.
Here, we tested whether EC31 could reverse P-gp-mediated PTX resistance in the LCC6MDR xenograft model (Figure 5C). The treatment was given every other day 14 times (q2d x 14) from day 0 to day 26.
The LCC6MDR tumor xenograft model was studied as it was previously. About 1 × 10^6 cells of LCC6MDR cells were inoculated subcutaneously (s.c.) into the rear flank of a female BALB/c nude mouse (4–6 weeks old). When a tumor of 200–250 mm^3 was formed, it was removed and cut into cubes of 1 mm^3 and was xenografted s.c. into the rear flank of another female BALB/c nude mouse. Treatments started when the tumor reached 100 mm^3. […] Tumor growth was measured with an electronic caliper on the injection day, and the tumor volume was calculated as reported previously.

[2] = system: P-gp; assay: DOX efflux in P388ADR cells; format: cell-based, mouse; details: 1 µM modulator; after 180 min of efflux; P388ADR preloaded with 20 µM DOX
Description: Figure 2 Effect of methylated catechin derivatives on intracellular DOX accumulation and DOX efflux in the P-gp-overexpressing cancer cells. […] Then, the cells were washed, and the intracellular DOX level was measured using flow cytometer. (A) LCC6MDR, (B) P388ADR, and (C) K562/P-gp. […] (D) In the efflux study, P388ADR cells were firstly incubated with 20 µM DOX for 45 min. […] At 60, 120, and 180 min, the cells were harvested, and the intracellular DOX level was measured. At 180 min, ** represents p < 0.01, and *** represents p < 0.001, both being relative to P388ADR incubated with DMSO only. […] N = 3 independent experiments. DMSO was used as a solvent control, and the highest amount used was 0.5%.
We investigated if methylated catechin derivatives could inhibit P-gp-mediated drug efflux in P-gp-overexpressing cells. […] Without a modulator, intracellularly, the DOX level was maintained at 80% and 11% after 180 min for P388 and P388ADR cells, respectively (Figure 2D). […] After 180 min of efflux, the intracellular DOX level could be maintained at 61% (p < 0.001), 59% (p < 0.01), 44 % (p < 0.001), and 37%, respectively (Figure 2D).

[3] = system: P-gp; set-up: method as in PMID 25985195, PMID 34597896; details: cited from earlier work
[4] = system: fibroblast cells; set-up: method as in PMID 25985195, PMID 34597896; details: cited from earlier work
[5] = molecular target: P-gp (Homo sapiens, UniProt P08183); assay: Intracellular EC31 or PTX accumulation in LCC6 versus LCC6MDR cells; format: cell-based; set-up: expressed in transfected cells; host or cells: MDA435/LCC6MDR (human breast cancer line, gift of Dr. Robert Clarke); details: from accumulation and efflux in cells with or without P-gp
Chain of P-gp (Homo sapiens, UniProt P08183) (P08183 whole entry): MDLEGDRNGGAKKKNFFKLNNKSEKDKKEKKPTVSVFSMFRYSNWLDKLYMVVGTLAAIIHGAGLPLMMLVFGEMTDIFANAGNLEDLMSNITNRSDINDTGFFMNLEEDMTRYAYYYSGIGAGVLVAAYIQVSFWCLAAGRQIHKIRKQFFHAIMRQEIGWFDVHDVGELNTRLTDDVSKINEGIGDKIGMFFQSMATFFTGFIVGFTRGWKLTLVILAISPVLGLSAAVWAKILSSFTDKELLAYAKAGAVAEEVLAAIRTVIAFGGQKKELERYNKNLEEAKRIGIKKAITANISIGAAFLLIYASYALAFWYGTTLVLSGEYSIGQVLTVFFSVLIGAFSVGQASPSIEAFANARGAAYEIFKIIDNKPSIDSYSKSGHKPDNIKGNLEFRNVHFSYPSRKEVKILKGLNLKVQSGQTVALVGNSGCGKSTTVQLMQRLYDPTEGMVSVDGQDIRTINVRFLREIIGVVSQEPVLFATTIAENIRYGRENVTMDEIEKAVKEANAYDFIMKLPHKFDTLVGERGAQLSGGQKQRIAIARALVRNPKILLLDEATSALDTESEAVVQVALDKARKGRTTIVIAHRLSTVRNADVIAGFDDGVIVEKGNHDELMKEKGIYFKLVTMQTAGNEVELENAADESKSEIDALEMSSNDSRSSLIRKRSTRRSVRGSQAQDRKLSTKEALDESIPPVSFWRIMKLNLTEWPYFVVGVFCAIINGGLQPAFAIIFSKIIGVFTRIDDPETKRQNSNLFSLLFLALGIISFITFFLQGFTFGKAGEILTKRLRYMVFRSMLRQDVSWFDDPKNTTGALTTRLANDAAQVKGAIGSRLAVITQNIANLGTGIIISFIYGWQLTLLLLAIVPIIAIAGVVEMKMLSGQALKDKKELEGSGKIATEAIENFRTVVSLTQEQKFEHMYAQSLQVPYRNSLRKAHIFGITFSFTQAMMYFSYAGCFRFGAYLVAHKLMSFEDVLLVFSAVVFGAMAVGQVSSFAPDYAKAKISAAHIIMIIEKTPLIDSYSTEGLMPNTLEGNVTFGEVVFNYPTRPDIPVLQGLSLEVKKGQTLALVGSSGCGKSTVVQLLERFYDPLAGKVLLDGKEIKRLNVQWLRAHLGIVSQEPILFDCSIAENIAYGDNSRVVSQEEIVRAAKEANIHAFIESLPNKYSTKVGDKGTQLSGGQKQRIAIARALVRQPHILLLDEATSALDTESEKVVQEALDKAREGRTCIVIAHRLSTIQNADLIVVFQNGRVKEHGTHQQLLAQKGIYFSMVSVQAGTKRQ
Description: N = 3 independent experiments.

[6] = group 3: EC31 30 mg/kg + PTX + EC31 30 mg/kg

COc1cc(OC)c2c(c1)O[C@H](c1ccc(OC)c(OC)c1)[C@H](OC(=O)c1ccc(F)c(NC(=O)c3cc(OC)c(OC)c(OC)c3)c1)C2 [EC31]
Doubling time ([1]; EC31 30 mg/kg i.p. (−1 h) + PTX 12 mg/kg i.v. + EC31 30 mg/kg i.p. (+5 h)): 15.0 days
Doubling time ([1]; EC31 60 mg/kg i.p. (−1 h) + PTX 12 mg/kg i.v.): 12.4 days
reduction in tumor volume compared to PTX alone [1, 6]: 1.6 fold
reduction in tumor weight compared to PTX alone [1, 6]: 1.5 fold
reduction in tumor volume compared to PTX alone ([1]; group 4: EC31 60 mg/kg + PTX): 1.4 fold
reduction in tumor weight compared to PTX alone ([1]; group 4: EC31 60 mg/kg + PTX): 1.4 fold
Relative intracellular DOX level (%) [2]: 44%
effect on plasma membrane level of P-gp [3]: did not affect
pIC50 [4]: < 4.00
P-gp transport substrate status [5]: not a transport substrate of P-gp
